Experiments:
[1] = tested on: Staphylococcus aureus; experiment: Antibacterial activity against Staphylococcus aureus at 100 ug/ml by disc diffusion method; format: functional; conditions: read-out: DIZ
[2] = tested on: Pseudomonas aeruginosa; experiment: Antibacterial activity against Pseudomonas aeruginosa at 100 ug/ml by disc diffusion method; format: functional; conditions: read-out: DIZ
[3] = tested on: Proteus sp.; experiment: Antibacterial activity against Proteus sp. at 50 ug/ml by disc diffusion method; format: functional; conditions: Proteus sp. (in: enterobacteria); read-out: DIZ
[4] = tested on: Pseudomonas aeruginosa; experiment: Antibacterial activity against Pseudomonas aeruginosa at 50 ug/ml by disc diffusion method; format: functional; conditions: read-out: DIZ
[5] = tested on: Proteus sp.; experiment: Antibacterial activity against Proteus sp. at 100 ug/ml by disc diffusion method; format: functional; conditions: Proteus sp. (in: enterobacteria); read-out: DIZ
[6] = tested on: Pseudomonas aeruginosa; experiment: Antibacterial activity against Pseudomonas aeruginosa at 10 ug/ml by disc diffusion method; format: functional; conditions: read-out: DIZ
[7] = tested on: Escherichia coli; experiment: Antibacterial activity against Escherichia coli at 10 ug/ml by disc diffusion method; format: functional; conditions: read-out: DIZ
[8] = tested on: Proteus sp.; experiment: Antibacterial activity against Proteus sp. at 10 ug/ml by disc diffusion method; format: functional; conditions: Proteus sp. (in: enterobacteria); read-out: DIZ
[9] = tested on: Staphylococcus aureus; experiment: Antibacterial activity against Staphylococcus aureus at 10 ug/ml by disc diffusion method; format: functional; conditions: read-out: DIZ
[10] = tested on: Escherichia coli; experiment: Antibacterial activity against Escherichia coli at 100 ug/ml by disc diffusion method; format: functional; conditions: read-out: DIZ
[11] = tested on: Staphylococcus aureus; experiment: Antibacterial activity against Staphylococcus aureus at 50 ug/ml by disc diffusion method; format: functional; conditions: read-out: DIZ
[12] = tested on: Escherichia coli; experiment: Antibacterial activity against Escherichia coli at 50 ug/ml by disc diffusion method; format: functional; conditions: read-out: DIZ
[13] = tested on: Staphylococcus aureus; experiment: Antibacterial activity against Staphylococcus aureus at 1 ug/ml by disc diffusion method; format: functional; conditions: read-out: DIZ
[14] = tested on: Proteus sp.; experiment: Antibacterial activity against Proteus sp. at 30 ug/ml by disc diffusion method; format: functional; conditions: Proteus sp. (in: enterobacteria); read-out: DIZ
[15] = tested on: Pseudomonas aeruginosa; experiment: Antibacterial activity against Pseudomonas aeruginosa at 1 ug/ml by disc diffusion method; format: functional; conditions: read-out: DIZ
[16] = Solubility of the compound in dioxane; format: physicochemical
[17] = tested on: Proteus sp.; experiment: Antibacterial activity against Proteus sp. at 1 ug/ml by disc diffusion method; format: functional; conditions: Proteus sp. (in: enterobacteria); read-out: DIZ
[18] = Solubility of the compound in ethanol; format: physicochemical
[19] = tested on: Escherichia coli; experiment: Antibacterial activity against Escherichia coli at 1 ug/ml by disc diffusion method; format: functional; conditions: read-out: DIZ
[20] = Solubility of the compound in THF; format: physicochemical
[21] = tested on: Escherichia coli; experiment: Antibacterial activity against Escherichia coli at 30 ug/ml by disc diffusion method; format: functional; conditions: read-out: DIZ
[22] = tested on: Pseudomonas aeruginosa; experiment: Antibacterial activity against Pseudomonas aeruginosa at 30 ug/ml by disc diffusion method; format: functional; conditions: read-out: DIZ
[23] = tested on: Staphylococcus aureus; experiment: Antibacterial activity against Staphylococcus aureus at 30 ug/ml by disc diffusion method; format: functional; conditions: read-out: DIZ
[24] = tested on: Escherichia coli; experiment: Antibacterial activity against Escherichia coli at 5 ug/ml by disc diffusion method; conditions: read-out: DIZ
[25] = tested on: Pseudomonas aeruginosa; experiment: Antibacterial activity against Pseudomonas aeruginosa at 5 ug/ml by disc diffusion method; conditions: read-out: DIZ
[26] = tested on: Staphylococcus aureus; experiment: Antibacterial activity against Staphylococcus aureus at 5 ug/ml by disc diffusion method; conditions: read-out: DIZ
[27] = tested on: Staphylococcus aureus; experiment: Antibacterial activity against Staphylococcus aureus at 15 ug/ml by disc diffusion method; format: functional; conditions: read-out: DIZ
[28] = tested on: Escherichia coli; experiment: Antibacterial activity against Escherichia coli at 15 ug/ml by disc diffusion method; format: functional; conditions: read-out: DIZ

SMILES | zone of inhibition at 100 µg/mL [1] [mm] | zone of inhibition at 100 µg/mL [2] [mm] | zone of inhibition at 50 µg/mL [3] [mm] | zone of inhibition at 50 µg/mL [4] [mm] | zone of inhibition at 100 µg/mL [5] [mm] | zone of inhibition at 10 µg/mL [6] [mm] | zone of inhibition at 10 µg/mL [7] [mm] | zone of inhibition at 10 µg/mL [8] [mm] | zone of inhibition at 10 µg/mL [9] [mm] | zone of inhibition at 100 µg/mL [10] [mm] | zone of inhibition at 50 µg/mL [11] [mm] | zone of inhibition at 50 µg/mL [12] [mm] | zone of inhibition at 1 µg/mL [13] [mm] | solubility [16] | solubility [18] | zone of inhibition at 1 µg/mL [19] [mm] | solubility [20] | also measured
Cc1cc(NS(=O)(=O)c2ccc(N)cc2)no1 [SULFAMETHOXAZOLE] | 9 | 10 | 8 | 8 | 9 | 7 | 8 | 7 | 6 | 12 | 8 | 10 | – | – | – | – | – | –
Nc1ccc(S(=O)(=O)Nc2nccs2)cc1 [SULFATHIAZOLE] | 15 | 9 | 10 | 8 | 11 | 7 | 7 | 8 | 10 | 11 | 13 | 10 | 6 | – | – | – | – | –
C[C@H]1[C@H](NC(=O)/C(=N\OC(C)(C)C(=O)O)c2csc(N)n2)C(=O)N1S(=O)(=O)O [AZTREONAM] | – | – | – | – | – | – | – | – | – | – | – | – | – | – | – | – | – | zone of inhibition at 30 µg/mL [14]: 24 mm
COc1cccc(C2C(Cl)C(=O)N2c2ccc(S(=O)(=O)Nc3cc(C)on3)cc2)c1O (configuration not stated) | 16 | 13 | 12 | 11 | 12 | 9 | 9 | 10 | 9 | 14 | 11 | 13 | 7 | soluble | soluble | 7 | soluble | zone of inhibition at 1 µg/mL [15]: 6 mm; zone of inhibition at 1 µg/mL [17]: 6 mm
CO[C@@H]1[C@@H](OC(N)=O)[C@@H](O)[C@H](Oc2ccc3c(O)c(NC(=O)c4ccc(O)c(CC=C(C)C)c4)c(=O)oc3c2C)OC1(C)C [NOVOBIOCIN] | – | – | – | – | – | – | – | – | – | – | – | – | – | – | – | – | – | zone of inhibition at 30 µg/mL [14]: 20 mm; zone of inhibition at 30 µg/mL [21]: 7 mm; zone of inhibition at 30 µg/mL [22]: 14 mm; zone of inhibition at 30 µg/mL [23]: 24 mm
COc1cccc(C2C(Cl)C(=O)N2c2ccc(S(=O)(=O)Nc3nccs3)cc2)c1O (configuration not stated) | 16 | 11 | 8 | 9 | 9 | 6 | 8 | 7 | 8 | 13 | 12 | 12 | 6 | soluble | soluble | 6 | soluble | –
O=C(O)c1cn(C2CC2)c2cc(N3CCNCC3)c(F)cc2c1=O [CIPROFLOXACIN] | – | – | – | – | – | – | – | – | – | – | – | – | – | – | – | – | – | zone of inhibition at 5 µg/mL [24]: 28 mm; zone of inhibition at 5 µg/mL [25]: 17 mm; zone of inhibition at 5 µg/mL [26]: 20 mm
CC[C@H]1OC(=O)[C@H](C)[C@@H](O[C@H]2C[C@@](C)(OC)[C@@H](O)[C@H](C)O2)[C@H](C)[C@@H](O[C@@H]2O[C@H](C)C[C@H](N(C)C)[C@H]2O)[C@](C)(OC)C[C@@H](C)C(=O)[C@H](C)[C@@H](O)[C@]1(C)O [CLARITHROMYCIN] | – | – | – | – | – | – | – | – | – | – | – | – | – | – | – | – | – | zone of inhibition at 15 µg/mL [27]: 23 mm; zone of inhibition at 15 µg/mL [28]: 16 mm
COc1cccc(/C=N/c2ccc(S(=O)(=O)Nc3nccs3)cc2)c1O | 14 | 13 | 8 | 10 | 9 | 8 | 9 | 7 | 9 | 15 | 12 | 12 | 6 | soluble | soluble | 6 | soluble | –
COc1cccc(/C=N/c2ccc(S(=O)(=O)Nc3cc(C)on3)cc2)c1O | 12 | 15 | 14 | 11 | 15 | 10 | 8 | 11 | 8 | 14 | 10 | 11 | 6 | soluble | soluble | 6 | soluble | zone of inhibition at 1 µg/mL [15]: 6 mm; zone of inhibition at 1 µg/mL [17]: 6 mm

— ChEMBL document CHEMBL3763119, “Metal-based biologically active azoles and β-lactams derived from sulfa drugs” (Bioorg Med Chem, 2016)
